Reference: DBAASP
Values after ≈ are worked out from the molar mass of the structure shown. One block for each molecule: values may come before it.

Columns and labels:
Experiment in all cases: ≥ marks a high value that may be exact or a test limit, other limits are often not marked, values filed in µg/mL are converted to µM
Escherichia coli BL21 = tested on: Escherichia coli BL21
[1] = tested on: Streptococcus pyogenes M1T1 5448
[2] = tested on: Pseudomonas aeruginosa PAO1
[3] = tested on: Pseudomonas aeruginosa Ps4
[4] = tested on: Salmonella enterica ATCC 6539
[5] = tested on: Staphylococcus aureus ATCC 43300
[6] = tested on: Escherichia coli ATCC 25922
[7] = tested on: Enterococcus faecium ATCC 700221
[8] = tested on: Pseudomonas aeruginosa ATCC 27853
[9] = tested on: Klebsiella pneumoniae ATCC 700603
[10] = tested on: Acinetobacter baumannii ATCC BAA-747
Escherichia coli EC18 = tested on: Escherichia coli EC18
[11] = tested on: Candida tropicalis ATCC 750
[12] = tested on: Candida albicans ATCC 90029
Escherichia coli EC16 = tested on: Escherichia coli EC16
[13] = tested on: Candida krusei ATCC 40147
[14] = tested on: Klebsiella pneumoniae KP1
Candida albicans CA1 = tested on: Candida albicans CA1
[15] = tested on: Candida parapsilosis ATCC 90018
[16] = tested on: Acinetobacter baumannii AB1
[17] = tested on: Pseudomonas aeruginosa PA14
Escherichia coli CFT073 = tested on: Escherichia coli CFT073
Escherichia coli = tested on: Escherichia coli
Escherichia coli UTI89 = tested on: Escherichia coli UTI89
[18] = tested on: Pseudomonas aeruginosa 891
[19] = tested on: Staphylococcus aureus MIU-68A
[20] = tested on: Staphylococcus aureus ATCC 25923
[21] = tested on: Pseudomonas aeruginosa 885149
Klebsiella pneumoniae = tested on: Klebsiella pneumoniae
[22] = tested on: Staphylococcus epidermidis LY8
Escherichia coli E44813 = tested on: Escherichia coli E44813
[23] = tested on: Pasteurella multocida C48-3
[24] = tested on: Listeria monocytogenes CICC 21533
[25] = tested on: Salmonella enterica subsp. enterica serovar Choleraesuis C78-1
[26] = tested on: Salmonella typhimurium SL1344
[27] = tested on: Bacillus subtilis CICC 24434

MIC (Escherichia coli BL21): 0.0156 µM (≈ 0.047 µg/mL)
MIC [1]: 0.125 µM (≈ 0.377 µg/mL)
MIC [2]: 32 µM (≈ 96.5 µg/mL)
SMILES: CC[C@H](C)[C@H](NC(=O)[C@H](Cc1c[nH]c2ccccc12)NC(=O)[C@H](C)NC(=O)[C@H](CCCN=C(N)N)NC(=O)[C@H](CCCCN)NC(=O)CNC(=O)[C@H](CCCCN)NC(=O)[C@H](CCC(=O)O)NC(=O)[C@H](CCC(N)=O)NC(=O)[C@@H](NC(=O)[C@H](CCCCN)NC(=O)[C@H](CCCCN)NC(=O)[C@H](CCCCN)NC(=O)[C@H](CC(C)C)NC(=O)[C@H](CCCN=C(N)N)NC(=O)[C@H](CCC(N)=O)NC(=O)[C@H](Cc1ccccc1)NC(=O)[C@@H](NC(=O)[C@@H](NC(=O)[C@H](CCC(=O)O)NC(=O)[C@H](CCCCN)NC(=O)CNC(=O)[C@H](C)N)[C@@H](C)O)[C@@H](C)CC)[C@@H](C)CC)C(=O)N[C@@H](C)C(=O)N[C@@H](Cc1c[nH]c2ccccc12)C(=O)O [AGKETIFQRLKKKIQEKGKRAWIAW]

MIC [3]: ≥ 178 µM
SMILES: CC[C@H](C)[C@H](NC(=O)[C@H](CC(N)=O)NC(=O)[C@H](CCCN=C(N)N)NC(=O)[C@H](CCC(N)=O)NC(=O)[C@H](Cc1c[nH]c2ccccc12)NC(=O)[C@@H](N)Cc1ccccc1)C(=O)N[C@@H](CCCN=C(N)N)C(=O)N[C@@H](CCCCN)C(=O)N[C@H](C(=O)N[C@@H](CCCN=C(N)N)C(N)=O)C(C)C [FWQRNIRKVR]

MIC [4]: 1 µM (≈ 1.46 µg/mL)
MIC [5]: 11 µM (≈ 16.1 µg/mL)
MIC [6]: 3 µM (≈ 4.39 µg/mL)
MIC [7]: 3 µM (≈ 4.39 µg/mL)
MIC [8]: 11 µM (≈ 16.1 µg/mL)
MIC [9]: 11 µM (≈ 16.1 µg/mL)
MIC [10]: 11 µM (≈ 16.1 µg/mL)
SMILES: NCCCC[C@H](NC(=O)CNC(=O)CNC(=O)[C@H](CCCN=C(N)N)NC(=O)[C@H](CS)NC(=O)[C@H](Cc1ccc(O)cc1)NC(=O)[C@H](Cc1c[nH]c2ccccc12)NC(=O)[C@H](CCCN=C(N)N)NC(=O)[C@H](Cc1c[nH]c2ccccc12)NC(=O)[C@H](Cc1cnc[nH]1)NC(=O)CNC(=O)CN)C(N)=O [GGHWRWYCRGGK]

MIC (Escherichia coli EC18): 10 µM (≈ 31.6 µg/mL)
MIC [11]: 10 µM (≈ 31.6 µg/mL)
MIC [12]: 10 µM (≈ 31.6 µg/mL)
MIC (Escherichia coli EC16): 5 µM (≈ 15.8 µg/mL)
MIC [13]: 2.5 µM (≈ 7.91 µg/mL)
MIC [14]: 5 µM (≈ 15.8 µg/mL)
MIC (Candida albicans CA1): 5 µM (≈ 15.8 µg/mL)
MIC [15]: 10 µM (≈ 31.6 µg/mL)
MIC [16]: 10 µM (≈ 31.6 µg/mL)
MIC [17]: 5 µM (≈ 15.8 µg/mL)
SMILES: CC[C@H](C)[C@H](NC(=O)CNC(=O)[C@H](C)NC(=O)[C@H](CCCCN)NC(=O)CNC(=O)[C@H](CCSC)NC(=O)[C@H](CCC(=O)O)NC(=O)[C@H](CCCCN)NC(=O)[C@@H](NC(=O)[C@@H](NC(=O)[C@H](CCCCN)NC(=O)[C@@H](NC(=O)[C@@H](NC(=O)[C@H](CCCCN)NC(=O)[C@H](CC(=O)O)NC(=O)[C@H](CCCCN)NC(=O)[C@H](Cc1cnc[nH]1)NC(=O)[C@H](CCCCN)NC(=O)[C@H](CC(N)=O)NC(=O)[C@H](Cc1c[nH]c2ccccc12)NC(=O)[C@H](Cc1c[nH]c2ccccc12)NC(=O)[C@H](CC(=O)O)NC(=O)[C@H](CCCCN)NC(=O)[C@H](CC(C)C)NC(=O)CN)[C@@H](C)CC)C(C)C)C(C)C)C(C)C)C(=O)N[C@@H](CC(N)=O)C(=O)N[C@@H](C)C(=O)N[C@@H](C)C(N)=O [GLKDWWNKHKDKIVKVVKEMGKAGINAA]

MIC [6]: 56.8 µM (≈ 125 µg/mL)
MIC (Escherichia coli CFT073): ≥ 56.8 µM
MIC [8]: 56.8 µM (≈ 125 µg/mL)
MIC (Escherichia coli): 80.4 µM (≈ 177 µg/mL)
MIC (Escherichia coli UTI89): ≥ 56.8 µM
MIC [2]: 56.8 µM (≈ 125 µg/mL)
SMILES: CC[C@H](C)[C@H](N)C(=O)N[C@@H](C)C(=O)N[C@@H](C)C(=O)N[C@@H](CCC(=O)O)C(=O)N[C@@H](CCCN=C(N)N)C(=O)N[C@@H](CCCN=C(N)N)C(=O)N[C@@H](Cc1ccc(O)cc1)C(=O)N[C@@H](C)C(=O)N[C@H](C(=O)N[C@H](C(=O)N[C@@H](Cc1ccc(O)cc1)C(=O)N[C@@H](CCC(N)=O)C(=O)N[C@@H](C)C(=O)N[C@@H](CCCN=C(N)N)C(=O)N[C@@H](CC(C)C)C(=O)N[C@@H](Cc1c[nH]c2ccccc12)C(=O)N[C@@H](C)C(=O)N[C@@H](Cc1ccccc1)C(=O)O)[C@@H](C)CC)[C@@H](C)O [IAAERRYATIYQARLWAF]

MIC [18]: 17 µM (≈ 16 µg/mL)
MIC [19]: ≥ 136 µM
MIC [6]: 17 µM (≈ 16 µg/mL)
MIC [20]: 136 µM (≈ 128 µg/mL)
MIC [21]: ≥ 34 µM
MIC [8]: 17 µM (≈ 16 µg/mL)
MIC (Escherichia coli): 136 µM (≈ 128 µg/mL)
MIC (Klebsiella pneumoniae): > 136 µM
SMILES: CC[C@H](C)[C@H](NC(=O)[C@@H](N)CCCCN)C(=O)N[C@@H](CCCN=C(N)N)C(=O)N[C@H](C(=O)N[C@@H](CCCN=C(N)N)C(=O)N[C@@H](CC(C)C)C(=O)N[C@@H](CO)C(=O)N[C@@H](C)C(=O)O)C(C)C [KIRVRLSA]

MIC [22]: 8.32 µM (≈ 25 µg/mL)
MIC (Escherichia coli E44813): 4.16 µM (≈ 12.5 µg/mL)
MIC [23]: 0.519 µM (≈ 1.56 µg/mL)
MIC [20]: 0.0083 µM (≈ 0.0249 µg/mL)
MIC [24]: ≥ 41.6 µM
MIC [26]: 0.519 µM (≈ 1.56 µg/mL)
MIC [27]: 0.519 µM (≈ 1.56 µg/mL)
SMILES: CC[C@H](C)[C@H](NC(=O)[C@@H](NC(=O)[C@@H](N)CCCN=C(N)N)[C@@H](C)CC)C(=O)N[C@@H](CC(=O)O)C(=O)N[C@@H](CCCN=C(N)N)C(=O)N[C@@H](CC(C)C)C(=O)N[C@@H](Cc1c[nH]c2ccccc12)C(=O)N[C@@H](CCCN=C(N)N)C(=O)N[C@H](C(=O)N[C@@H](CCCN=C(N)N)C(=O)N[C@@H](CCCN=C(N)N)C(=O)N1CCC[C@H]1C(=O)N[C@@H](CCC(N)=O)C(=O)N[C@@H](CCCCN)C(=O)N1CCC[C@H]1C(=O)N[C@@H](CCCCN)C(=O)N[C@@H](Cc1ccccc1)C(=O)N[C@H](C(=O)N[C@H](C(=O)N[C@H](C(=O)N[C@@H](Cc1c[nH]c2ccccc12)C(=O)N[C@H](C(=O)N[C@@H](CCCN=C(N)N)C(=O)O)C(C)C)C(C)C)[C@@H](C)O)C(C)C)C(C)C [RIIDRLWRVRRPQKPKFVTVWVR]
MIC [25]: 0.26 µM (≈ 0.78 µg/mL)
